Assay results from patent US20110065916A1, “METHOD OF MAKING IMIDAZOAZEPINONE COMPOUNDS” (priority 2007, published 2011).
pIC50: −log10 of the molar value.

These molecules were tested on human T-bet (assay: HEKT-bet-luc assay (normalized HEKT-bet IC50)). Conditions: Homo sapiens, HEK293, 24 h, Table 4, engineered HEK cells, compound 24 hours, normalized to reference ER-819544.
Assay type: cell-based
Description: HEKT-bet-luc assay: This assay measures a T-bet dependent reporter (luciferase) activity in engineered HEK cells that express a human T-bet and a T-box responsive element driving luciferase reporter. HEKT-bet cells were plated at 2×10^4/well in 96-well plate and compound was added into cell culture for 24 hours. Luciferase activity was measured by adding 50 μl of Steady-Glo reagent (Promega) and samples were read in Victor V reader (PerkinElmer). The activity of compound was determined by comparing compound treated samples to non-compound treated vehicle controls. The IC50 values were calculated utilizing a maximum value corresponding to the amount of luciferase in the absence of a test compound and a minimum value corresponding to a test compound value obtained at maximum inhibition.
Determination of Normalized HEKT-bet IC50 values: Compounds were assayed in microtiter plates. Each plate included a reference compound which was ER-819544. The un-normalized IC50 value for a particular compound was divided by the IC50 value determined for the reference compound in the same microtiter plate to provide a relative potency value. The relative potency value was then multiplied by the established potency of the reference compound to provide the normalized HEKT-bet IC50 value. […] The IC50 values provided herein were obtained using this normalization method.

| Compound | pIC50 |
| --- | --- |
| COc1cc2c(c(OC)c1)[C@@H](C)C=C1N(C2)C(=O)N(CCO)C12CCN(Cc1cc(C)cc(C)c1)CC2 (single isomer, unassigned) [ER-819786] | 7.52 |
| COc1cc2c(c(OC)c1)[C@H](C)C=C1N(C2)C(=O)N(CCO)C12CCN(Cc1cc(C)cc(C)c1)CC2 (single isomer, unassigned) [ER-819787] | 6.77 |
| COc1cc2c(c(OC)c1)[C@@H](C)C=C1N(C2)C(=O)N(C[C@@H](O)CO)C12CCN(Cc1cc(C)cc(C)c1)CC2 (single isomer, unassigned) [ER-819788] | 7.52 |
| COc1cc2c(c(OC)c1)[C@H](C)C=C1N(C2)C(=O)N(C[C@@H](O)CO)C12CCN(Cc1cc(C)cc(C)c1)CC2 (single isomer, unassigned) [ER-819789] | 6.77 |
| C=C(C)CN1C(=O)N2Cc3cc(OC)cc(OC)c3[C@@H](C)C=C2C12CCN(Cc1cc(C)cc(C)c1)CC2 (single isomer, unassigned) [ER-820006] | 7.22 |
| C=C(C)CN1C(=O)N2Cc3cc(OC)cc(OC)c3[C@H](C)C=C2C12CCN(Cc1cc(C)cc(C)c1)CC2 (single isomer, unassigned) [ER-820007] | 5.90 |
| CCN1C(=O)N2Cc3cc(OC)cc(OC)c3[C@@H](C)C=C2C12CCN(Cc1nccn1C)CC2 [ER-811278-01] | 7.43 |
| CCN1C(=O)N2Cc3cc(OC)cc(OC)c3[C@@H](C)C=C2C12CCN(Cc1csnn1)CC2 [ER-811279-01] | 6.68 |
| CCN1C(=O)N2Cc3cc(OC)cc(OC)c3[C@@H](C)C=C2C12CCN(Cc1nc(C)oc1C)CC2 [ER-811283-01] | 7.28 |
| CCN1C(=O)N2Cc3cc(OC)cc(OC)c3[C@@H](C)C=C2C12CCN(Cc1ccc3nccn3c1)CC2 [ER-811284-01] | 7.06 |
| CCN1C(=O)N2Cc3cc(OC)cc(OC)c3[C@@H](C)C=C2C12CCN(Cc1cccc3c1OCCO3)CC2 [ER-811291-01] | 6.92 |
| CCN1C(=O)N2Cc3cc(OC)cc(OC)c3[C@@H](C)C=C2C12CCN(Cc1cn3ccccc3n1)CC2 [ER-811292-01] | 6.89 |
| CCN1C(=O)N2Cc3cc(OC)cc(OC)c3[C@@H](C)C=C2C12CCN(Cc1cnc3ccccc3n1)CC2 [ER-811297-01] | 7.13 |
| CCN1C(=O)N2Cc3cc(OC)cc(OC)c3[C@@H](C)C=C2C12CCN(Cc1cccc3[nH]ccc13)CC2 [ER-811300-01] | 7.46 |
| CCN1C(=O)N2Cc3cc(OC)cc(OC)c3[C@@H](C)C=C2C12CCN(Cc1cc3nccnc3s1)CC2 [ER-811301-01] | 6.59 |
| CCN1C(=O)N2Cc3cc(OC)cc(OC)c3[C@@H](C)C=C2C12CCN(Cc1cccc(-n3cncn3)c1)CC2 [ER-811302-01] | 6.60 |
| CCN1C(=O)N2Cc3cc(OC)cc(OC)c3[C@@H](C)C=C2C12CCN(Cc1ccc3occc3c1)CC2 [ER-811304-01] | 7.00 |
| CCN1C(=O)N2Cc3cc(OC)cc(OC)c3[C@@H](C)C=C2C12CCN(Cc1c(C)nc3ccccn13)CC2 [ER-811305-01] | 7.51 |
| CCN1C(=O)N2Cc3cc(OC)cc(OC)c3[C@@H](C)C=C2C12CCN(Cc1cccc3c1OCC3)CC2 [ER-811306-01] | 7.00 |
| CCN1C(=O)N2Cc3cc(OC)cc(OC)c3[C@@H](C)C=C2C12CCN(Cc1cc3ccccc3o1)CC2 [ER-811308-01] | 7.25 |
| CCN1C(=O)N2Cc3cc(OC)cc(OC)c3[C@@H](C)C=C2C12CCN(Cc1cn3ccsc3n1)CC2 [ER-811309-01] | 6.89 |

| Compound | pIC50 |
| --- | --- |
| CCN1C(=O)N2Cc3cc(OC)cc(OC)c3[C@@H](C)C=C2C12CCN(Cc1c3ccccc3nn1C)CC2 [ER-811312-01] | 7.11 |
| CCN1C(=O)N2Cc3cc(OC)cc(OC)c3[C@@H](C)C=C2C12CCN(Cc1cccc(-n3cccn3)c1)CC2 [ER-811317-01] | 7.13 |
| CCN1C(=O)N2Cc3cc(OC)cc(OC)c3[C@@H](C)C=C2C12CCN(Cc1ccc3ccccc3n1)CC2 [ER-811323-01] | 7.38 |
| CCN1C(=O)N2Cc3cc(OC)cc(OC)c3[C@@H](C)C=C2C12CCN(Cc1cccc3nsnc13)CC2 [ER-811332-01] | 7.17 |
| CCN1C(=O)N2Cc3cc(OC)cc(OC)c3[C@@H](C)C=C2C12CCN(Cc1c(-c3ccc(F)cc3)nc3ncccn13)CC2 [ER-811346-02] | 6.70 |
| CCN1C(=O)N2Cc3cc(OC)cc(OC)c3[C@@H](C)C=C2C12CCN(Cc1cccc3c1ccn3C)CC2 [ER-811349-01] | 7.37 |
| CCN1C(=O)N2Cc3cc(OC)cc(OC)c3[C@@H](C)C=C2C12CCN(Cc1c(C)nc3sccn13)CC2 [ER-811352-02] | 7.89 |
| CCN1C(=O)N2Cc3cc(OC)cc(OC)c3[C@@H](C)C=C2C12CCN(Cc1cccn1C(C)C)CC2 [ER-811358-01] | 6.66 |
| CCN1C(=O)N2Cc3cc(OC)cc(OC)c3[C@@H](C)C=C2C12CCN(Cc1cccn1C(C)(C)C)CC2 [ER-811359-01] | 6.57 |
| CCN1C(=O)N2Cc3cc(OC)cc(OC)c3[C@@H](C)C=C2C12CCN(Cc1cc(C)sc1C)CC2 [ER-811365-01] | 7.08 |
| CCN1C(=O)N2Cc3cc(OC)cc(OC)c3[C@@H](C)C=C2C12CCN(Cc1cc(C)cc(C)c1)CC2 [ER-819762] | 7.40 |
| CCN1C(=O)N2Cc3cc(OC)cc(OC)c3[C@H](C)C=C2C12CCN(Cc1cc(C)cc(C)c1)CC2 [ER-819763] | 6.26 |
| CCN1C(=O)N2Cc3cc(OC)cc(OC)c3[C@@H](C)C=C2C12CCN(Cc1cnc[nH]1)CC2 [ER-819780-01] | 6.70 |
| CCN1C(=O)N2Cc3cc(OC)cc(OC)c3[C@@H](C)C=C2C12CCN(Cc1c[nH]c3ccccc13)CC2 [ER-819783-01] | 7.46 |
| CCN1C(=O)N2Cc3cc(OC)cc(OC)c3[C@@H](C)C=C2C12CCN(Cc1nn(C)c3ccccc13)CC2 [ER-819800-01] | 7.64 |
| CCN1C(=O)N2Cc3cc(OC)cc(OC)c3[C@@H](C)C=C2C12CCN(Cc1cn(C)c3ccccc13)CC2 [ER-819804-01] | 7.40 |
| CCN1C(=O)N2Cc3cc(OC)cc(OC)c3[C@@H](C)C=C2C12CCN(Cc1cn(C(C)=O)c3ccccc13)CC2 [ER-819808-01] | 6.85 |
| CCN1C(=O)N2Cc3cc(OC)cc(OC)c3[C@@H](C)C=C2C12CCN(Cc1cnoc1C)CC2 [ER-819810-01] | 7.92 |
| CCN1C(=O)N2Cc3cc(OC)cc(OC)c3[C@@H](C)C=C2C12CCN(Cc1ccc(/C=C/c3ccccc3)cc1)CC2 [ER-819814-01] | 6.52 |
| CCN1C(=O)N2Cc3cc(OC)cc(OC)c3[C@@H](C)C=C2C12CCN(Cc1ccc3nn[nH]c3c1)CC2 [ER-819820-01] | 7.05 |
| CCN1C(=O)N2Cc3cc(OC)cc(OC)c3[C@@H](C)C=C2C12CCN(Cc1c[nH]nc1C)CC2 [ER-819826-01] | 7.17 |

| Compound | pIC50 |
| --- | --- |
| CCN1C(=O)N2Cc3cc(OC)cc(OC)c3[C@@H](C)C=C2C12CCN(Cc1cccnc1C)CC2 [ER-819832-01] | 7.24 |
| CCN1C(=O)N2Cc3cc(OC)cc(OC)c3[C@@H](C)C=C2C12CCN(Cc1cccnc1OC)CC2 [ER-819833-01] | 7.33 |
| CCN1C(=O)N2Cc3cc(OC)cc(OC)c3[C@@H](C)C=C2C12CCN(Cc1cnc3ccccc3c1)CC2 [ER-819837-01] | 7.25 |
| CCN1C(=O)N2Cc3cc(OC)cc(OC)c3[C@@H](C)C=C2C12CCN(Cc1sncc1C)CC2 [ER-819842-01] | 7.09 |
| CCN1C(=O)N2Cc3cc(OC)cc(OC)c3[C@@H](C)C=C2C12CCN(Cc1ccc3cc[nH]c3c1)CC2 [ER-819844-01] | 7.17 |
| CCN1C(=O)N2Cc3cc(OC)cc(OC)c3[C@@H](C)C=C2C12CCN(Cc1ccc3nn(C)nc3c1)CC2 [ER-819847-01] | 7.46 |
| CCN1C(=O)N2Cc3cc(OC)cc(OC)c3[C@@H](C)C=C2C12CCN(Cc1cccn1-c1ccccc1C(F)(F)F)CC2 [ER-819849-01] | 6.66 |
| CCN1C(=O)N2Cc3cc(O)cc(O)c3[C@@H](C)C=C2C12CCN(Cc1cc(C)cc(C)c1)CC2 [ER-819888-00] | 6.52 |
| CCN1C(=O)N2Cc3cc(OC)cc(OC)c3[C@@H](C)C=C2C12CCN(Cc1cccn1C)CC2 [ER-819924] | 7.30 |
| CCN1C(=O)N2Cc3cc(OC)cc(OC)c3[C@H](C)C=C2C12CCN(Cc1cccn1C)CC2 [ER-819925] | 6.49 |
| CCN1C(=O)N2Cc3cc(OC)cc(OC)c3[C@@H](C)C=C2C12CCN(Cc1nc3ccccc3n1C)CC2 [ER-819926] | 7.40 |
| CCN1C(=O)N2Cc3cc(OC)cc(OC)c3[C@H](C)C=C2C12CCN(Cc1nc3ccccc3n1C)CC2 [ER-819927] | 6.68 |
| CCN1C(=O)N2Cc3cc(OC)cc(OC)c3[C@@H](C)C=C2C12CCN(Cc1cc(C)c(F)c(C)c1)CC2 [ER-819931] | 7.15 |
| CCN1C(=O)N2Cc3cc(OC)cc(OC)c3[C@@H](C)C=C2C12CCN(Cc1ccc(F)c(OC(F)(F)F)c1)CC2 [ER-819933] | 5.94 |
| CCN1C(=O)N2Cc3cc(OC)cc(OC)c3[C@@H](C)C=C2C12CCN(Cc1c(F)ccc(C)c1F)CC2 [ER-819934] | 7.00 |
| CCN1C(=O)N2Cc3cc(OC)cc(OC)c3[C@@H](C)C=C2C12CCN(Cc1cc(C)ccc1F)CC2 [ER-819935] | 6.89 |
| CCN1C(=O)N2Cc3cc(OC)cc(OC)c3[C@@H](C)C=C2C12CCN(Cc1ccc(F)c(OC)c1)CC2 [ER-819936] | 6.92 |
| CCN1C(=O)N2Cc3cc(OC)cc(OC)c3[C@H](C)C=C2C12CCN(Cc1cc(C)c(F)c(C)c1)CC2 [ER-819943] | < 5.00 |
| CCN1C(=O)N2Cc3cc(OC)cc(OC)c3[C@H](C)C=C2C12CCN(Cc1ccc(F)c(OC(F)(F)F)c1)CC2 [ER-819945] | < 5.00 |
| CCN1C(=O)N2Cc3cc(OC)cc(OC)c3[C@H](C)C=C2C12CCN(Cc1c(F)ccc(C)c1F)CC2 [ER-819946] | 5.53 |
